Data reported in PubChem BioAssay AID248 (DTP/NCI, 2004).
Several values for one entry are separate records, joined by “and”; a condition that tells them apart may be missing. Identical values can stand only once. Toxic doses and inconclusive results are not listed. No stated cut-off is given here; in the data, active means T/C of 150% or more; inactive means T/C below 125%.

System: L1210 leukemia ip in BDF1 mice, survival T/C
Assay: NCI In Vivo Anticancer Drug Screen. Data for tumor model L1210 Leukemia (intraperitoneal) in B6D2F1 (BDF1) mice
Conditions: endpoint: mean survival time, higher = longer survival
Summary of the method: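 Transplantable tumor model; survival measured in treated vs vehicle control mice. Value = treated/control.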

[1] = dose: 3.12 mg/kg/injection, schedule: Q01DX009 (ip), vehicle: saline with Tween-80
[2] = dose: 12.5 mg/kg/injection, schedule: Q01DX009 (ip), vehicle: saline with Tween-80
[3] = dose: 100.0 mg/kg/injection, schedule: Q04DX003 (ip), vehicle: saline with Tween-80
[4] = dose: 200.0 mg/kg/injection, schedule: Q04DX003 (ip), vehicle: saline with Tween-80
[5] = dose: 400.0 mg/kg/injection, schedule: Q04DX003 (ip), vehicle: saline with Tween-80
[6] = dose: 100.0 mg/kg/injection, schedule: Q04DX002 (ip), vehicle: saline with Tween-80
[7] = dose: 200.0 mg/kg/injection, schedule: Q04DX002 (ip), vehicle: saline with Tween-80
[8] = dose: 100.0 mg/kg/injection, schedule: Q01DX009 (ip), vehicle: saline with Tween-80
[9] = dose: 200.0 mg/kg/injection, schedule: Q01DX009 (ip), vehicle: saline with Tween-80
[10] = dose: 400.0 mg/kg/injection, schedule: Q01DX009 (ip), vehicle: saline with Tween-80
[11] = dose: 100.0 mg/kg/injection, schedule: Q04DX002 (ip), vehicle: saline
[12] = dose: 200.0 mg/kg/injection, schedule: Q04DX002 (ip), vehicle: saline
[13] = dose: 400.0 mg/kg/injection, schedule: Q04DX002 (ip), vehicle: saline

Measured: T/C

CCC(=O)NC1CC(OC2CC(O)(C(C)=O)Cc3c(O)c4c(c(O)c32)C(=O)c2c(OC)cccc2C4=O)OC(C)C1O (stereo not given)
inactive: dose: 2.0 mg/kg/injection, schedule: Q04DX003 (ip), vehicle: water 104 % of control | [1] 96 % of control | dose: 4.0 mg/kg/injection, schedule: Q04DX003 (ip), vehicle: water 105 % of control | dose: 6.25 mg/kg/injection, schedule: Q01DX009 (ip), vehicle: saline with Tween-80 105 % of control | dose: 8.0 mg/kg/injection, schedule: Q04DX003 (ip), vehicle: water 103 % of control | [2] 105 % of control | dose: 16.0 mg/kg/injection, schedule: Q04DX003 (ip), vehicle: water 101 % of control and 102 % of control | dose: 18.75 mg/kg/injection, schedule: Q04DX003 (ip), vehicle: saline with Tween-80 105 % of control | dose: 25.0 mg/kg/injection, schedule: Q01DX009 (ip), vehicle: saline with Tween-80 111 % of control | dose: 32.0 mg/kg/injection, schedule: Q04DX003 (ip), vehicle: water 116 % of control | dose: 37.5 mg/kg/injection, schedule: Q04DX003 (ip), vehicle: saline with Tween-80 105 % of control | dose: 50.0 mg/kg/injection, schedule: Q01DX009 (ip), vehicle: saline with Tween-80 113 % of control | dose: 64.0 mg/kg/injection, schedule: Q04DX003 (ip), vehicle: water 112 % of control | dose: 75.0 mg/kg/injection, schedule: Q04DX003 (ip), vehicle: saline with Tween-80 105 % of control | dose: 150.0 mg/kg/injection, schedule: Q04DX003 (ip), vehicle: saline with Tween-80 122 % of control | dose: 125.0 micrograms/kg/injection, schedule: Q04DX003 (ip), vehicle: water 100 % of control | dose: 250.0 micrograms/kg/injection, schedule: Q04DX003 (ip), vehicle: water 102 % of control | dose: 500.0 micrograms/kg/injection, schedule: Q04DX003 (ip), vehicle: water 97 % of control | dose: 1000.0 micrograms/kg/injection, schedule: Q04DX003 (ip), vehicle: water 103 % of control | dose: 2000.0 micrograms/kg/injection, schedule: Q04DX003 (ip), vehicle: water 96 % of control

CC1(C)N=C(N)N=C(N)N1c1ccc(CC(C(=O)Nc2cccc(S(=O)(=O)F)c2)c2ccccc2)cc1 (stereo not given)
inactive: dose: 25.0 mg/kg/injection, schedule: Q01DX001 (ip), vehicle: saline 105 % of control | dose: 50.0 mg/kg/injection, schedule: Q01DX001 (ip), vehicle: saline 106 % of control | dose: 87.5 mg/kg/injection, schedule: Q01DX001 (ip), vehicle: saline 94 % of control | dose: 100.0 mg/kg/injection, schedule: Q01DX001 (ip), vehicle: saline 97 % of control

N=C(N)c1ccc(Oc2ccc(-c3cc4ccc(C(=N)N)cc4[nH]3)cc2)cc1
inactive: dose: 1.56 mg/kg/injection, schedule: Q01DX009 (ip), vehicle: saline with Tween-80 90 % of control | [1] 106 % of control | dose: 6.25 mg/kg/injection, schedule: Q04DX003 (ip), vehicle: saline 100 % of control (2×) and 112 % of control | [2] 119 % of control | dose: 12.5 mg/kg/injection, schedule: Q04DX003 (ip), vehicle: saline 112 % of control and 120 % of control and 122 % of control | dose: 25.0 mg/kg/injection, schedule: Q04DX003 (ip), vehicle: saline 112 % of control

CC(C)(c1cc(Br)sc1Br)c1cc(Br)sc1Br
inactive: dose: 50.0 mg/kg/injection, schedule: Q01DX009 (ip), vehicle: Klucel (hydroxypropylcellulose) (HPC) 95 % of control | dose: 100.0 mg/kg/injection, schedule: Q01DX009 (ip), vehicle: Klucel (hydroxypropylcellulose) (HPC) 98 % of control | dose: 100.0 mg/kg/injection, schedule: Q04DX003 (ip), vehicle: acetone 106 % of control | dose: 200.0 mg/kg/injection, schedule: Q01DX009 (ip), vehicle: Klucel (hydroxypropylcellulose) (HPC) 101 % of control | dose: 200.0 mg/kg/injection, schedule: Q04DX003 (ip), vehicle: acetone 117 % of control | dose: 400.0 mg/kg/injection, schedule: Q04DX003 (ip), vehicle: acetone 104 % of control

Brc1ccccc1N=Nc1ccccc1Br
inactive: [3] 92 % of control | [4] 91 % of control | [5] 107 % of control

CC(O)(C(F)(F)F)C(C)(O)C(F)(F)F (stereo not given)
inactive: [6] 86 % of control | [7] 91 % of control

O=C(O)C(Cc1ccccc1)N1C(=O)C2C3CCC(C3)C2C1=O (stereo not given)
inactive: dose: 25.0 mg/kg/injection, schedule: Q04DX003 (ip), vehicle: saline with Tween-80 93 % of control | dose: 50.0 mg/kg/injection, schedule: Q04DX003 (ip), vehicle: saline with Tween-80 93 % of control | [3] 100 % of control and 107 % of control | [4] 110 % of control | [5] 103 % of control

CC1=CCCC1
inactive: dose: 100.0 mg/kg/injection, schedule: Q01DX009 (ip), vehicle: saline 101 % of control | dose: 200.0 mg/kg/injection, schedule: Q01DX009 (ip), vehicle: saline 95 % of control | dose: 400.0 mg/kg/injection, schedule: Q01DX009 (ip), vehicle: saline 95 % of control

C/C(=N\NC(N)=S)C1OCCc2ccccc21 (stereo not given)
inactive: dose: 5.0 mg/kg/injection, schedule: Q01DX001 (ip), vehicle: saline 105 % of control | dose: 10.0 mg/kg/injection, schedule: Q01DX001 (ip), vehicle: saline 90 % of control | dose: 20.0 mg/kg/injection, schedule: Q01DX001 (ip), vehicle: saline 98 % of control

O=C(COc1ccc(Cl)cc1Cl)Nc1ccc(S(=O)(=O)O)cc1
inactive: dose: 100.0 mg/kg/injection, schedule: Q04DX002 (ip), vehicle: Klucel (hydroxypropylcellulose) (HPC) 92 % of control | dose: 200.0 mg/kg/injection, schedule: Q04DX002 (ip), vehicle: Klucel (hydroxypropylcellulose) (HPC) 111 % of control | dose: 400.0 mg/kg/injection, schedule: Q04DX002 (ip), vehicle: Klucel (hydroxypropylcellulose) (HPC) 103 % of control

CC1CN=C(c2ccc(NC(=O)NCCCCCCCCCCCCNC(=O)Nc3ccc(C4=NCC(C)N4)cc3)cc2)N1 (stereo not given)
inactive: dose: 12.5 mg/kg/injection, schedule: Q01DX Z (ip), vehicle: carboxymethylcellulose (CMC) 95 % of control | dose: 125.0 mg/kg/injection, schedule: Q01DX Z (ip), vehicle: carboxymethylcellulose (CMC) 104 % of control

c1ccc2c(c1)Nc1ccncc1S2
inactive: [8] 95 % of control | [9] 90 % of control | [10] 101 % of control

c1ccc(CNNCc2ccccc2)cc1
inactive: dose: 75.0 mg/kg/injection, schedule: Q01DX009 (ip), vehicle: Klucel (hydroxypropylcellulose) (HPC) 102 % of control | dose: 100.0 mg/kg/injection, schedule: Q04DX003 (ip), vehicle: Klucel (hydroxypropylcellulose) (HPC) 102 % of control | dose: 150.0 mg/kg/injection, schedule: Q01DX009 (ip), vehicle: Klucel (hydroxypropylcellulose) (HPC) 109 % of control | dose: 200.0 mg/kg/injection, schedule: Q04DX003 (ip), vehicle: Klucel (hydroxypropylcellulose) (HPC) 94 % of control

Cc1c(Cl)cccc1NC(=O)Nc1ccc(S(N)(=O)=O)cc1
inactive: [8] 93 % of control and 97 % of control | [6] 101 % of control and 110 % of control | [3] 100 % of control | [9] 104 % of control and 105 % of control | [7] 101 % of control and 104 % of control | [4] 95 % of control | [10] 93 % of control and 101 % of control | dose: 400.0 mg/kg/injection, schedule: Q04DX002 (ip), vehicle: saline with Tween-80 93 % of control and 95 % of control | [5] 92 % of control

CCOC(=O)CN(c1ccccc1C(=O)OC)S(=O)(=O)c1ccc(C)cc1
inactive: dose: 100.0 mg/kg/injection, schedule: Q01DX001 (ip), vehicle: carboxymethylcellulose (CMC) 112 % of control | dose: 200.0 mg/kg/injection, schedule: Q01DX001 (ip), vehicle: carboxymethylcellulose (CMC) 114 % of control | dose: 400.0 mg/kg/injection, schedule: Q01DX001 (ip), vehicle: carboxymethylcellulose (CMC) 107 % of control

COC1OC2COc3ccccc3OC2C(NC(N)=O)C1O (stereo not given)
inactive: [8] 97 % of control | [9] 100 % of control | [10] 91 % of control

CCOCCOCCOC(C)Oc1ccc(Cl)cc1 (stereo not given)
inactive: [11] 96 % of control | [12] 90 % of control | [13] 104 % of control

CSc1ccc(NC(=O)c2cccc([N+](=O)[O-])c2C(=O)O)cc1
inactive: [11] 106 % of control | [12] 110 % of control | [13] 106 % of control
